Measurements published in US11850220B2 (Augusta University Research Institute, Inc., priority 2020, dated 2023).

Legend:
Format in all cases: in vivo
hot plate = hot plate technique (central analgesic); conditions: for Potency: Relative to indomethacin at 120 min.
[1] = test system: carrageenan-induced paw edema; test: carrageenan-induced paw edema technique (anti-inflammatory); conditions: for Observed (1/property): 1/(% inhibition of edema thickness at 3 h effect); as to Observed (1/property): test concentration or dose not given here; as to Potency (% Inhibition relative to indomethacin at 3 h effect): test concentration or dose not given here
Description: Anti-inflammatory properties of the ibuprofen-amino acid conjugate (5a-j) and ibuprofen-amino acid-4-aminophenol conjugates 7a-j were studied by the standard carrageenan-induced paw edema technique (Naumov, R. N. et al., Bioorg. Med. Chem. Lett. 2015, 25, 2314-2320; Tiwari, A. D. et al., Org. Biomol. Chem. 2014, 12, 7238-7249).

[2] = test system: acetic acid-induced abdominal writhing; test: acetic acid-induced abdominal writhing technique (peripheral analgesic); conditions: for Potency: Relative to indomethacin; for % Inhibition/protection / Writing reflex ± SEM: in vivo; as to % Inhibition/protection: test concentration or dose not given here; as to Writing reflex ± SEM: test concentration or dose not given here
[3] = % inhibition of edema thickness at 3 h effect, Table 7
[4] = anti-inflammatory property (% inhibition of edema at 3 h), Table 8

| SMILES | % protection (hot plate; After 30 min.) | Latency period ± SEM (hot plate; After 30 min.) | % protection (hot plate; After 60 min.) | Latency period ± SEM (hot plate; After 60 min.) | % protection (hot plate; After 90 min.) | Latency period ± SEM (hot plate; After 90 min.) | % protection (hot plate; After 120 min.) | Latency period ± SEM (hot plate; After 120 min.) | Potency (hot plate) | Observed (1/property) ([1]; Table 7) | % inhibition of edema ([1]; 1 h) | Mean edema thickness ([1]; 1 h) | % inhibition of edema ([1]; 2 h) | Mean edema thickness ([1]; 2 h) | % inhibition of edema ([1]; 3 h) | Mean edema thickness ([1]; 3 h) | % inhibition of edema ([1]; 4 h) | Mean edema thickness ([1]; 4 h) | % inhibition of edema ([1]; 24 h) | Mean edema thickness ([1]; 24 h) | further results |
| --- | --- | --- | --- | --- | --- | --- | --- | --- | --- | --- | --- | --- | --- | --- | --- | --- | --- | --- | --- | --- | --- |
| CSCC[C@H](NC(=O)C(C)c1ccc(CC(C)C)cc1)C(=O)O (stereo partly drawn) [Compound 5i, (2-(4-Isobutylphenyl)propanoyl)-L-methionine] | (32.2) % | 3.20 ± 0.03 s | (51.1) % | 3.35 ± 0.06 s | (61.4) % | 3.55 ± 0.07 s | (13.2) % | 2.48 ± 0.04 s | 23 | 0.02222 | 24% | 0.93 ± 0.04 mm | 54% | 0.69 ± 0.05 mm | 45% | 0.71 ± 0.04 mm | 12% | 1.10 ± 0.06 mm | 79% | 0.04 ± 0.01 mm | Observed property [1, 3]: 45%; Observed property [1, 4]: 45%; Potency (% Inhibition relative to indomethacin at 3 h effect) [1]: 56%; Potency [2]: 40; % Inhibition/protection [2]: 22.2%; Writing reflex ± SEM [2]: 75.7 ± 1.9 |
| CC(C)Cc1ccc(C(C)C(=O)NCCC(=O)O)cc1 (stereo not drawn) [Compound 5c, 3-(2-(4-Isobutylphenyl)propanamido)propanoic acid] | (16.5) % | 2.82 ± 0.04 s | (35.0) % | 3.01 ± 0.02 s | (20.5) % | 2.65 ± 0.05 s | (20.1) % | 2.63 ± 0.10 s | 36 | 0.01887 | 43% | 0.70 ± 0.03 mm | 29% | 1.07 ± 0.07 mm | 53% | 0.61 ± 0.04 mm | 36% | 0.80 ± 0.03 mm | 21% | 0.15 ± 0.01 mm | Observed property [1, 3]: 53%; Observed property [1, 4]: 53%; Potency (% Inhibition relative to indomethacin at 3 h effect) [1]: 66%; Potency [2]: 8; % Inhibition/protection [2]: 4.2%; Writing reflex ± SEM [2]: 93.2 ± 1.4 |
| CC(C)Cc1ccc(C(C)C(=O)N[C@@H](CC(C)C)C(=O)O)cc1 (stereo partly drawn) [Compound 5g] | (27.7) % | 3.09 ± 0.04 s | (28.7) % | 2.87 ± 0.03 s | (4.1) % | 2.29 ± 0.05 s | (3.7) % | 2.27 ± 0.03 s | 7 | 0.01724 | 5% | 1.17 ± 0.07 mm | 24% | 1.15 ± 0.06 mm | 58% | 0.55 ± 0.04 mm | 40% | 0.75 ± 0.05 mm | 42% | 0.11 ± 0.04 mm | Observed property [1, 3]: 58%; Observed property [1, 4]: 58%; Potency (% Inhibition relative to indomethacin at 3 h effect) [1]: 73%; Potency [2]: 89; % Inhibition/protection [2]: 48.9%; Writing reflex ± SEM [2]: 49.7 ± 1.2 |
| CC(C)Cc1ccc(C(C)C(=O)N[C@H](C(=O)O)C(C)C)cc1 (stereo partly drawn) [Compound 5h] | (12.8) % | 2.73 ± 0.05 s | (20.6) % | 2.69 ± 0.04 s | (9.5) % | 2.41 ± 0.02 s | (6.4) % | 2.33 ± 0.02 s | 11 | 0.01754 | 11% | 1.09 ± 0.08 mm | 14% | 1.30 ± 0.07 mm | 57% | 0.56 ± 0.05 mm | 49% | 0.64 ± 0.06 mm | 84% | 0.03 ± 0.02 mm | Observed property [1, 3]: 57%; Observed property [1, 4]: 57%; Potency (% Inhibition relative to indomethacin at 3 h effect) [1]: 72%; Potency [2]: 54; % Inhibition/protection [2]: 29.6%; Writing reflex ± SEM [2]: 68.5 ± 2.0 |
| CC(C)Cc1ccc(C(C)C(=O)N[C@@H](C)C(=O)O)cc1 (stereo partly drawn) [Compound 5b, (2-(4-Isobutylphenyl)propanoyl)-L-alanine] | (12.8) % | 2.73 ± 0.03 s | (17.0) % | 2.61 ± 0.12 s | (20.9) % | 2.66 ± 0.01 s | (21.9) % | 2.67 ± 0.06 s | 39 | 0.01923 | 34% | 0.81 ± 0.04 mm | 37% | 0.95 ± 0.02 mm | 52% | 0.63 ± 0.01 mm | 51% | 0.61 ± 0.03 mm | 32% | 0.13 ± 0.03 mm | Observed property [1, 3]: 52%; Observed property [1, 4]: 52%; Potency (% Inhibition relative to indomethacin at 3 h effect) [1]: 65%; Potency [2]: 80; % Inhibition/protection [2]: 43.8%; Writing reflex ± SEM [2]: 54.7 ± 2.0 |
| CC(C)Cc1ccc(C(C)C(=O)N[C@@H](Cc2ccccc2)C(=O)O)cc1 (stereo partly drawn) [Compound 5e, (2-(4-Isobutylphenyl)propanoyl)-L-phenylalanine] | (24.0) % | 3.00 ± 0.04 s | (30.5) % | 2.91 ± 0.01 s | (35.5) % | 2.98 ± 0.03 s | (48.4) % | 3.25 ± 0.02 s | 86 | 0.01613 | 25% | 0.92 ± 0.07 mm | 19% | 1.22 ± 0.08 mm | 62% | 0.50 ± 0.04 mm | 30% | 0.88 ± 0.05 mm | 74% | 0.05 ± 0.02 mm | Observed property [1, 3]: 62%; Observed property [1, 4]: 62%; Potency (% Inhibition relative to indomethacin at 3 h effect) [1]: 78%; Potency [2]: 84; % Inhibition/protection [2]: 46.0%; Writing reflex ± SEM [2]: 52.5 ± 1.2 |
